According to ChEMBL document CHEMBL2424652, “Synthesis, characterization, and antimicrobial evaluation of novel trichalcones containing core s-triazine moiety” (2013):

How the values were obtained:
Assay type in all cases: functional
Staphylococcus aureus = assay: Antibacterial activity against Staphylococcus aureus at 200 ug/mL after 24 hrs by disc diffusion method; conditions: read-out: DIZ
Proteus vulgaris = assay: Antibacterial activity against Proteus vulgaris at 200 ug/mL after 24 hrs by disc diffusion method; conditions: read-out: DIZ
[1] = Antibacterial activity against Xanthomonas citri at 200 ug/mL after 24 hrs by disc diffusion method; conditions: read-out: DIZ
[2] = tested on: Pectobacterium carotovorum; assay: Antibacterial activity against Erwinia carotovora at 200 ug/mL after 24 hrs by disc diffusion method; conditions: read-out: DIZ
Alternaria = assay: Antifungal activity against Alternaria at 200 ug/mL after 48 hrs by disc diffusion method; conditions: for zone of inhibition at 200 µg/mL: read-out: DIZ
Curvularia = assay: Antifungal activity against Curvularia lunata at 200 ug/mL after 48 hrs by disc diffusion method; conditions: for zone of inhibition at 200 µg/mL: read-out: DIZ

Molecule	zone of inhibition at 200 µg/mL (Staphylococcus aureus)	zone of inhibition at 200 µg/mL (Proteus vulgaris)	zone of inhibition at 200 µg/mL [1]	zone of inhibition at 200 µg/mL [2]	zone of inhibition at 200 µg/mL (Alternaria)	zone of inhibition at 200 µg/mL (Curvularia)	inhibition zone (IZ) (Alternaria)	inhibition zone (IZ) (Curvularia)
COc1cc(C(=O)/C=C/c2ccc(Oc3nc(Oc4ccc(/C=C/C(=O)c5cc(OC)c(OC)c(OC)c5)cc4)nc(Oc4ccc(/C=C/C(=O)c5cc(OC)c(OC)c(OC)c5)cc4)n3)cc2)cc(OC)c1OC	13 mm	11.1 mm	10.1 mm	12.3 mm	13.2 mm	14.1 mm		
COc1ccc(C(=O)/C=C/c2ccc(Oc3nc(Oc4ccc(/C=C/C(=O)c5ccc(OC)cc5)cc4)nc(Oc4ccc(/C=C/C(=O)c5ccc(OC)cc5)cc4)n3)cc2)cc1	7.86 mm	6.96 mm	8.86 mm	8.06 mm	10.2 mm	13.2 mm		
O=C(/C=C/c1ccc(Oc2nc(Oc3ccc(/C=C/C(=O)c4ccc([N+](=O)[O-])cc4)cc3)nc(Oc3ccc(/C=C/C(=O)c4ccc([N+](=O)[O-])cc4)cc3)n2)cc1)c1ccc([N+](=O)[O-])cc1	4.93 mm	5.9 mm	6.1 mm	6.96 mm	7 mm	8.2 mm		
O=C(/C=C/c1ccc(Oc2nc(Oc3ccc(/C=C/C(=O)c4ccccc4)cc3)nc(Oc3ccc(/C=C/C(=O)c4ccccc4)cc3)n2)cc1)c1ccccc1	10 mm	7.83 mm	6.96 mm	7.93 mm	5.1 mm	6.16 mm		
Cc1ccc(C(=O)/C=C/c2ccc(Oc3nc(Oc4ccc(/C=C/C(=O)c5ccc(C)cc5)cc4)nc(Oc4ccc(/C=C/C(=O)c5ccc(C)cc5)cc4)n3)cc2)cc1	7.93 mm	10 mm	10.1 mm	8.03 mm	5.16 mm	6.96 mm		
COc1ccc(C(=O)/C=C/c2ccc(Oc3nc(Oc4ccc(/C=C/C(=O)c5ccc(OC)c(OC)c5)cc4)nc(Oc4ccc(/C=C/C(=O)c5ccc(OC)c(OC)c5)cc4)n3)cc2)cc1OC	9.9 mm	12.3 mm	11.1 mm	12.2 mm	12.1 mm	12.1 mm		
O=C(/C=C/c1ccc(Oc2nc(Oc3ccc(/C=C/C(=O)c4ccc(Br)cc4)cc3)nc(Oc3ccc(/C=C/C(=O)c4ccc(Br)cc4)cc3)n2)cc1)c1ccc(Br)cc1	9.96 mm	11.9 mm	11.1 mm	13 mm	6.16 mm	10.1 mm		
COc1ccc(OC)c(C(=O)/C=C/c2ccc(Oc3nc(Oc4ccc(/C=C/C(=O)c5cc(OC)ccc5OC)cc4)nc(Oc4ccc(/C=C/C(=O)c5cc(OC)ccc5OC)cc4)n3)cc2)c1	9.1 mm	7.86 mm	10 mm	9.1 mm	12.2 mm	12.2 mm		
CC1(C)S[C@@H]2[C@H](NC(=O)Cc3ccccc3)C(=O)N2[C@H]1C(=O)O [PENICILLIN G]	15 mm	15 mm	15 mm	15 mm				
O=C(/C=C/c1ccc(Oc2nc(Oc3ccc(/C=C/C(=O)c4ccc(Cl)cc4)cc3)nc(Oc3ccc(/C=C/C(=O)c4ccc(Cl)cc4)cc3)n2)cc1)c1ccc(Cl)cc1	12.1 mm	14 mm	10.1 mm	8.06 mm	8.03 mm	7.2 mm		
O=C(/C=C/c1ccc(Oc2nc(Oc3ccc(/C=C/C(=O)c4cccc([N+](=O)[O-])c4)cc3)nc(Oc3ccc(/C=C/C(=O)c4cccc([N+](=O)[O-])c4)cc3)n2)cc1)c1cccc([N+](=O)[O-])c1	7.13 mm	10 mm	7.96 mm	6 mm	7.96 mm	6.96 mm		
NYSTATIN							15 mm	15 mm
